The source of these data is PubChem BioAssay AID226 (DTP/NCI, 2004).

Where “and” joins values, the source holds several entries; their conditions need not be identical. Equal values may be shown once. Toxic doses and inconclusive results are not listed.

The subject of this assay is B6C3F1 mice, intracerebral ependymoblastoma, median survival T/C. Nature of the assay: NCI In Vivo Anticancer Drug Screen. Data for tumor model Ependymoblastoma (intracerebral) in B6C3F1 mice. As to conditions: endpoint: median survival time, higher = longer survival. The protocol:
The antitumor activity of compounds was measured in mice bearing transplantable tumors. Survival or tumor size were measured and the results are expressed as the measurement made in the treated group (T) divided by the measurement made in the vehicle treated control group (C). The tumor model used in this assay is Ependymoblastoma (intracerebral) in B6C3F1 mice

[1] abbreviates: dose: 1.0 mg/kg/injection, schedule: Q01DX005 (ip), vehicle: saline.
[2] abbreviates: dose: 2.0 mg/kg/injection, schedule: Q01DX005 (ip), vehicle: saline.
Setting [3] is: dose: 4.0 mg/kg/injection, schedule: Q01DX005 (ip), vehicle: saline.
Setting [4] is: dose: 8.0 mg/kg/injection, schedule: Q01DX005 (ip), vehicle: saline.
[5] abbreviates: dose: 16.0 mg/kg/injection, schedule: Q01DX005 (ip), vehicle: saline.
Setting [6] is: dose: 32.0 mg/kg/injection, schedule: Q01DX005 (ip), vehicle: saline.
Setting [7] is: dose: 25.0 mg/kg/injection, schedule: Q01DX005 (ip), vehicle: saline with Tween-80.

Regarding `O=C(O)CC(NC(=O)CP(=O)(O)O)C(=O)O` (centres undefined), the T/C under setting [1] was 117 % of control; the T/C under setting [2] is 104 % of control; the T/C under setting [3] was 108 % of control; the T/C under setting [4] is 104 % of control; the T/C under setting [5] is 107 % of control; the T/C (dose: 27.0 mg/kg/injection, schedule: Q#ADX018 (ip), vehicle: saline) is 99 % of control. Moreover, the T/C is 101 % of control and 111 % of control under setting [6]; 96 % of control (dose: 32.0 mg/kg/injection, schedule: Q04DX003 (ip), vehicle: saline); 90 % of control (dose: 45.0 mg/kg/injection, schedule: Q01DX009 (ip), vehicle: saline with Tween-80); 103 % of control (dose: 45.0 mg/kg/injection, schedule: Q12HX010 (ip), vehicle: saline); 180 % of control (dose: 45.0 mg/kg/injection, schedule: Q#A X010 (ip), vehicle: saline); 102 % of control (dose: 45.0 mg/kg/injection, schedule: Q#ADX018 (ip), vehicle: saline). The T/C is, setting by setting: (dose: 64.0 mg/kg/injection, schedule: Q01DX005 (ip), vehicle: saline) 104 % of control and 114 % of control; (dose: 64.0 mg/kg/injection, schedule: Q04DX003 (ip), vehicle: saline) 109 % of control; (dose: 90.0 mg/kg/injection, schedule: Q01DX005 (ip), vehicle: saline) 95 % of control and 100 % of control; (dose: 90.0 mg/kg/injection, schedule: Q01DX009 (ip), vehicle: saline with Tween-80) 109 % of control; (dose: 90.0 mg/kg/injection, schedule: Q#A X010 (ip), vehicle: saline) 187 % of control; (dose: 90.0 mg/kg/injection, schedule: Q#ADX018 (ip), vehicle: saline) 95 % of control. The T/C by setting is: (dose: 100.0 mg/kg/injection, schedule: Q12HX010 (ip), vehicle: saline) 109 % of control; (dose: 128.0 mg/kg/injection, schedule: Q01DX005 (ip), vehicle: saline) 101 % of control and 117 % of control; (dose: 128.0 mg/kg/injection, schedule: Q04DX003 (ip), vehicle: saline) 105 % of control; (dose: 180.0 mg/kg/injection, schedule: Q01DX005 (ip), vehicle: saline) 106 % of control and 110 % of control; (dose: 180.0 mg/kg/injection, schedule: Q12HX010 (ip), vehicle: saline) 107 % of control; (dose: 180.0 mg/kg/injection, schedule: Q#A X010 (ip), vehicle: saline) 172 % of control. Moreover, the T/C was 110 % of control (dose: 256.0 mg/kg/injection, schedule: Q01DX005 (ip), vehicle: saline) and 114 % of control (dose: 256.0 mg/kg/injection, schedule: Q04DX003 (ip), vehicle: saline).

For the molecule `Nc1ccc(S(N)(=O)=O)cc1`, the T/C under setting [7] was 98 % of control; the T/C (dose: 50.0 mg/kg/injection, schedule: Q01DX005 (ip), vehicle: saline with Tween-80) was 96 % of control and 103 % of control; the T/C (dose: 100.0 mg/kg/injection, schedule: Q01DX005 (ip), vehicle: saline with Tween-80) is 101 % of control and 103 % of control; the T/C (dose: 200.0 mg/kg/injection, schedule: Q01DX005 (ip), vehicle: saline with Tween-80) is 92 % of control and 102 % of control; the T/C (dose: 400.0 mg/kg/injection, schedule: Q01DX005 (ip), vehicle: saline with Tween-80) is 101 % of control and 107 % of control; the T/C (dose: 800.0 mg/kg/injection, schedule: Q01DX005 (ip), vehicle: saline with Tween-80) was 95 % of control.

Turning to `N[C@H](C(=O)O)[C@@H]1CC(Cl)=NO1`, the T/C (dose: 1.0 mg/kg/injection, schedule: Q01DX005 (ip), vehicle: saline + Tween-80 + alcohol) is 112 % of control; the T/C (dose: 2.0 mg/kg/injection, schedule: Q01DX005 (ip), vehicle: saline + Tween-80 + alcohol) was 106 % of control; the T/C under setting [2] is 97 % of control and 111 % of control; the T/C (dose: 4.0 mg/kg/injection, schedule: Q01DX005 (ip), vehicle: saline + Tween-80 + alcohol) was 114 % of control; the T/C under setting [3] is 104 % of control and 121 % of control; the T/C (dose: 8.0 mg/kg/injection, schedule: Q01DX005 (ip), vehicle: saline + Tween-80 + alcohol) was 118 % of control. Further, the T/C was 111 % of control and 117 % of control under setting [4]; 89 % of control (dose: 16.0 mg/kg/injection, schedule: Q01DX005 (ip), vehicle: saline + Tween-80 + alcohol); 109 % of control and 124 % of control under setting [5]; 111 % of control under setting [6].

In the case of `CC(=O)OCC1OC(n2cnc3c(=S)nc[nH]c32)C(OC(C)=O)C1OC(C)=O` (centres undefined), the T/C reads like this: (dose: 50.0 mg/kg/injection, schedule: Q01DX005 (ip), vehicle: suspension in saline) 100 % of control; (dose: 100.0 mg/kg/injection, schedule: Q01DX005 (ip), vehicle: suspension in saline) 111 % of control; (dose: 200.0 mg/kg/injection, schedule: Q01DX005 (ip), vehicle: suspension in saline) 108 % of control.

As to `NS(=O)(=O)c1cc2c(cc1Cl)NC=NS2(=O)=O`, the T/C (dose: 37.5 mg/kg/injection, schedule: Q01DX005 (ip), vehicle: Klucel (hydroxypropylcellulose) (HPC)) is 109 % of control; the T/C (dose: 75.0 mg/kg/injection, schedule: Q01DX005 (ip), vehicle: Klucel (hydroxypropylcellulose) (HPC)) was 96 % of control; the T/C (dose: 150.0 mg/kg/injection, schedule: Q01DX005 (ip), vehicle: Klucel (hydroxypropylcellulose) (HPC)) was 90 % of control; the T/C (dose: 300.0 mg/kg/injection, schedule: Q01DX005 (ip), vehicle: Klucel (hydroxypropylcellulose) (HPC)) was 107 % of control; the T/C (dose: 600.0 mg/kg/injection, schedule: Q01DX005 (ip), vehicle: Klucel (hydroxypropylcellulose) (HPC)) was 102 % of control.

Take `O=C1NC(c2ccc(Cl)cc2)(c2ccc(Cl)cc2)C(=O)N1Cl`: the T/C is 102 % of control (dose: 1.56 mg/kg/injection, schedule: Q01DX009 (ip), vehicle: saline with Tween-80); 105 % of control (dose: 3.13 mg/kg/injection, schedule: Q01DX009 (ip), vehicle: saline with Tween-80); 102 % of control (dose: 6.25 mg/kg/injection, schedule: Q01DX009 (ip), vehicle: saline with Tween-80); 101 % of control and 104 % of control (dose: 12.5 mg/kg/injection, schedule: Q01DX009 (ip), vehicle: saline with Tween-80); 95 % of control and 99 % of control (dose: 25.0 mg/kg/injection, schedule: Q01DX009 (ip), vehicle: saline with Tween-80); 101 % of control (dose: 50.0 mg/kg/injection, schedule: Q01DX009 (ip), vehicle: saline with Tween-80).

In the case of `CCCN(C)/N=N/c1nc[nH]c1C(N)=O`, the T/C runs as follows: (dose: 4.0 mg/kg/injection, schedule: Q01DX005 (ip), vehicle: saline with Tween-80) 112 % of control; (dose: 8.0 mg/kg/injection, schedule: Q01DX005 (ip), vehicle: saline with Tween-80) 124 % of control.

For the molecule `Nc1nc(SCc2ccccc2F)c2ncn(C3OC(CO)C(O)C3O)c2n1` (centres undefined), the T/C is 101 % of control and 103 % of control (dose: 0.78 mg/kg/injection, schedule: Q01DX005 (ip), vehicle: saline with Tween-80); 100 % of control and 109 % of control (dose: 1.56 mg/kg/injection, schedule: Q01DX005 (ip), vehicle: saline with Tween-80); 93 % of control and 96 % of control (dose: 3.12 mg/kg/injection, schedule: Q01DX005 (ip), vehicle: saline with Tween-80); 91 % of control and 104 % of control and 120 % of control (dose: 6.25 mg/kg/injection, schedule: Q01DX005 (ip), vehicle: saline with Tween-80); 99 % of control (dose: 12.5 mg/kg/injection, schedule: Q01DX005 (ip), vehicle: saline with Tween-80); 122 % of control under setting [7].

With `COc1ccc2c(c1O)-c1cccc3c1[C@@H](C2)N(CCCl)CC3`, the T/C is, setting by setting: (dose: 0.25 mg/kg/injection, schedule: Q01DX005 (ip), vehicle: saline) 105 % of control; (dose: 0.5 mg/kg/injection, schedule: Q01DX005 (ip), vehicle: saline) 100 % of control; under setting [1], 96 % of control; under setting [2], 99 % of control and 87 % of control; (dose: 4.0 mg/kg/injection, schedule: Q01DX005 (ip), vehicle: Klucel (hydroxypropylcellulose) (HPC)) 98 % of control; under setting [3], 104 % of control. Also, the T/C reads like this: (dose: 8.0 mg/kg/injection, schedule: Q01DX005 (ip), vehicle: Klucel (hydroxypropylcellulose) (HPC)) 98 % of control; under setting [4], 93 % of control; under setting [5], 88 % of control; under setting [6], 86 % of control.
